Drawing on US12448389B2, “BRM targeting compounds and associated methods of use” (Prelude Therapeutics Incorporated, priority 2020, dated 2025), this text covers DC50 and Dmax for twelve compounds.

Assay [1] deals with T1, SMARCA4-HiBiT (Homo sapiens, UniProt P51532).
T1 construct: SMARCA4-HiBiT knock-in Hela monoclonal cell (CS3023226); host or cells: HeLa monoclonal knock-in line (CRISPR HiBiT knock-in at the endogenous locus, heterozygous)
The assay can be described thus: SMARCA4 HiBiT degradation assay in HeLa cells. The format is cell-based. The conditions noted are these: 18 hours incubation; for DC50: read-out: HeLa-HiBit-SM4 DC50; for Dmax: HeLa, read-out: HeLa-HiBit-SM4 Dmax (%). How it is done:
(§1) HiBiT peptide knock-in of SMARCA2 in LgBiT expressing HEK293T cells was performed by CRISPR-mediated tagging system as described Promega. The homozygous HiBiT knock-in on c-terminus SMARCA2 was confirmed by sanger sequence. SMARCA2-HiBiT knock-in Hela monoclonal cell (CS302366) and SMARCA4-HiBiT knock-in Hela monoclonal cell (CS3023226) were purchased from Promega. The heterozygous HiBiT-knock-in was confirmed by sanger sequence in both SMARCA2-HiBiT and SMARCA4-HiBiT monoclonal cells.
(§2) SMARCA2 HiBiT and SMARCA4 HiBiT Degradation Assay in HeLa Cells
(§3) Dispense 10 ul aliquot of prepared Hela-SMARCA2-HiBiT or Hela-SMARCA4-HiBiT cells (1:1 ratio of cells:Trypan Blue (#1450013, Bio-Rad)) onto cell counting slide (#145-0011, Bio-Rad) and obtain cell density and cell viability using cell counter (TC20, Bio-Rad). Remove appropriate volume of resuspended cells from culture flask to accommodate 2500 cells/well @20 μL/well. Transfer Hela-HiBiT cells to 50 mL conical (#430290, Corning). Spin down at 1000 rpm for 5 min using tabletop centrifuge (SPINCHRON 15, Beckman). Discard supernatant and resuspend cell pellet in modified EMEM (#30-2003, ATCC) cell culture media containing 10% FBS (F2422-500ML, Sigma), and 1×Penicillin/Streptomycin (200 g/L) (30-002-CI, Corning) to a cell density of 125,000 cells/mL. Dispense 20 μL of resuspended Hela-HiBit cells per well in 384-well TC treated plate (#12-565-343, Thermo Scientific) using standard cassette (#50950372, Thermo Scientific) on Multidrop Combi (#5840310, Thermo Scientific) inside laminar flow cabinet. Dispense test compounds onto plates using digital liquid dispenser (D300E, Tecan). Incubate plates in humidified tissue culture incubator @37° C. for 18 hours. Add 20 μL of prepared Nano-Glo® HiBiT Lytic detection buffer (N3050, Promega) to each well of 384-well plate using small tube cassette (#24073295, Thermo Scientific) on Multidrop Combi, incubate @RT for 30-60 min. Read plates on microplate reader (Envision 2105, PerkinElmer) using 384 well Ultra-Sensitive luminescence mode. Raw data files and compound information reports are swept into centralized data lake and deconvoluted using automated scripts designed by TetraScience, Inc. Data analysis, curve-fitting and reporting done in Dotmatics Informatics Suite using Screening Ultra module.

Assay [2] deals with T2, SMARCA2-HiBiT (Homo sapiens, UniProt P51531).
T2 construct: SMARCA2-HiBiT knock-in Hela monoclonal cell (CS302366); host or cells: HeLa monoclonal knock-in line (CRISPR HiBiT knock-in at the endogenous locus, heterozygous)
The assay can be described thus: SMARCA2 HiBiT degradation assay in HeLa cells. The class given is cell-based. The conditions noted are these: 18 hours incubation; for DC50: read-out: HeLa_HiBit-SM2 DC50; for Dmax: HeLa, read-out: HeLa-HiBit-SM2 Dmax (%). The procedure:
as §1, §2, §3

T1 sequence (P51532 whole entry): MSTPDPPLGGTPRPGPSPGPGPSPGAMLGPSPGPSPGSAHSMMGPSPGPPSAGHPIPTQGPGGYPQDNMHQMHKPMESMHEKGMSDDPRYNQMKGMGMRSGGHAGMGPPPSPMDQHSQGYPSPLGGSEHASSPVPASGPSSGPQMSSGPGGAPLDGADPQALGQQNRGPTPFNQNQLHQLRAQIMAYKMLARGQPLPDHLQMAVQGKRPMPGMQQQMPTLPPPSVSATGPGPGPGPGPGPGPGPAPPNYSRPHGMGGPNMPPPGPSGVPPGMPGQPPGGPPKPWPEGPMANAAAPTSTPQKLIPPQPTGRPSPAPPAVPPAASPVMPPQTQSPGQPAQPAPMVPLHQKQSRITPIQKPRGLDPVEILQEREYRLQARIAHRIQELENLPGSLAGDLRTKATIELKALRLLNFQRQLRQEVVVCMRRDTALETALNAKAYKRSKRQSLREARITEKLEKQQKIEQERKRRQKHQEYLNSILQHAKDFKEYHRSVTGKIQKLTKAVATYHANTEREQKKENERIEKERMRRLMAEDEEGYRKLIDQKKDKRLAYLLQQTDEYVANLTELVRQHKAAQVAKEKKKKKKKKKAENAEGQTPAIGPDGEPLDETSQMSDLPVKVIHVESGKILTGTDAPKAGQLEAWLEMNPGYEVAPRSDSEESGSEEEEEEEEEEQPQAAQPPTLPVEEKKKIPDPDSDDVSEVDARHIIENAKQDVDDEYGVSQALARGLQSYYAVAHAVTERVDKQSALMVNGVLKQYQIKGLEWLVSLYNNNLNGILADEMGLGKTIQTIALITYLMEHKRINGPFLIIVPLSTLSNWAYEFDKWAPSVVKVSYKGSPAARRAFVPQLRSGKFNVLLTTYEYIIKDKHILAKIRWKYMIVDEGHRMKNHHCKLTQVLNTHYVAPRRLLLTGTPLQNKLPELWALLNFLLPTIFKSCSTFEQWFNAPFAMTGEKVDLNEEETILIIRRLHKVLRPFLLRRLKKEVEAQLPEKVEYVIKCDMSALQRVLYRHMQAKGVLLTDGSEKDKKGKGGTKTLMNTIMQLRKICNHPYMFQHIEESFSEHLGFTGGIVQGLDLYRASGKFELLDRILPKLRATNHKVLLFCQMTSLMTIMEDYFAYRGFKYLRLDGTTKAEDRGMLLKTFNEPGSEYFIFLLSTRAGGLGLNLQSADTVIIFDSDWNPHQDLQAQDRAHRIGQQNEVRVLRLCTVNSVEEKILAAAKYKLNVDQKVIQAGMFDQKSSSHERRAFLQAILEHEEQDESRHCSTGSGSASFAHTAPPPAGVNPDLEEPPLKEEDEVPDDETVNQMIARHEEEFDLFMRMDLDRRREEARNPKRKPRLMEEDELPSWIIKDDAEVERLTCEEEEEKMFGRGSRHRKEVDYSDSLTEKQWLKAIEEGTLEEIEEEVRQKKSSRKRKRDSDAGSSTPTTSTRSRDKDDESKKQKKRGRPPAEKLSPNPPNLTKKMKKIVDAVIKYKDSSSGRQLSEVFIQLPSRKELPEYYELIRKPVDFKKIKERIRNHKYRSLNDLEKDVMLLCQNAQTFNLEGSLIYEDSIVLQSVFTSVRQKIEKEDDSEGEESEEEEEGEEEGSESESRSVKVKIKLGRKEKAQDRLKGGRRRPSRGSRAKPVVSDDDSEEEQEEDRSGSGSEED
T2 sequence (P51531 whole entry): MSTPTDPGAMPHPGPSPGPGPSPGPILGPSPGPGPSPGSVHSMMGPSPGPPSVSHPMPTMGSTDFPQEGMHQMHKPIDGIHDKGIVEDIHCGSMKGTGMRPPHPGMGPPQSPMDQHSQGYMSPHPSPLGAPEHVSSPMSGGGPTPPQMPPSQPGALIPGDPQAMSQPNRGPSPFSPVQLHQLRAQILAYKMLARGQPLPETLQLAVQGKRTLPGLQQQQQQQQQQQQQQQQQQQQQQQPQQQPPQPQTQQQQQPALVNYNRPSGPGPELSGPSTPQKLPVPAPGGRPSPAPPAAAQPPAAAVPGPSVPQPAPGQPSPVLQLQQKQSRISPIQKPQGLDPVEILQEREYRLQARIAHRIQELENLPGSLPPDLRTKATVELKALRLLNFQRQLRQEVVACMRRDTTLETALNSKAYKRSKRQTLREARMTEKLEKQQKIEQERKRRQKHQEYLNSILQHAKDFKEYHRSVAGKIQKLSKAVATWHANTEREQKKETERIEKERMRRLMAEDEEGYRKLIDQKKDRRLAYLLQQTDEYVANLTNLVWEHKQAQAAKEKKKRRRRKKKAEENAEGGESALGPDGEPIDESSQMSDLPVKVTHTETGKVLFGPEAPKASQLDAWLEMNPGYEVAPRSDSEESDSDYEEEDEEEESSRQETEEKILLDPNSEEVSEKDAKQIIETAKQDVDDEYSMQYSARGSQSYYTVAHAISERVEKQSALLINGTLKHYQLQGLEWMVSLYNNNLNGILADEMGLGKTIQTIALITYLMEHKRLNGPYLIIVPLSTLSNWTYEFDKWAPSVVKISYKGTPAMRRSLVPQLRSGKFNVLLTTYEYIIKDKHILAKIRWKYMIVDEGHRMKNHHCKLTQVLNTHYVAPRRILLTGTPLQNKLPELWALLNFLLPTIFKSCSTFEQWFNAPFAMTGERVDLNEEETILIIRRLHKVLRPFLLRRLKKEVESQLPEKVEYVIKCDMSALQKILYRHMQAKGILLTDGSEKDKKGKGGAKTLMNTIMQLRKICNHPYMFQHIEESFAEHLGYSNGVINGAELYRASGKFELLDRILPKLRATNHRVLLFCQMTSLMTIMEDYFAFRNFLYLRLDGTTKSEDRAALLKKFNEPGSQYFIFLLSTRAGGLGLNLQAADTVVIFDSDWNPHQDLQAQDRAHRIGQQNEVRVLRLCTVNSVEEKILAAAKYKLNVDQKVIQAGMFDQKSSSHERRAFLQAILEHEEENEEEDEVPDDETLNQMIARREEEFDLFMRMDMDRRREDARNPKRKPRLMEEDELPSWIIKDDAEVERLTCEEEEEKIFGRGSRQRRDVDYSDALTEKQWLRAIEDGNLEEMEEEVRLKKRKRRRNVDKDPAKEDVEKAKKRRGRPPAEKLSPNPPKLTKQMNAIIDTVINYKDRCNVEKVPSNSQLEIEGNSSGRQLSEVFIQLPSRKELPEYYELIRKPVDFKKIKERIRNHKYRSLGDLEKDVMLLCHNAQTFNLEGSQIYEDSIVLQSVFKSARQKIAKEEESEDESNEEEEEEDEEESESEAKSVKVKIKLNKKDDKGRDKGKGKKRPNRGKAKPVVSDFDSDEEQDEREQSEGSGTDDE

For the compound `O=C1CCC(N2Cc3ccc(N4CCC(CN5CC6(C5)CN(C(=O)N5CCN7c8cc(-c9ccccc9O)nnc8NC[C@H]7C5)C6)CC4)cc3C2=O)C(=O)N1` (stereo partly drawn) [Example 101, 3-(6-(4-((6-((S)-2-(2-hydroxyphenyl)-6,6a,7,8,9,10-hexahydro-5H-pyrazino[1′,2′:4,5]pyrazino[2,3-c]pyridazine-8-carbonyl)-2,6-diazaspiro[3.3]heptan-2-yl)methyl)piperidin-1-yl)-1-oxoisoindolin-2-yl)piperidine-2,6-dione], in assay [1], the half-maximal degradation concentration (DC50) is 10 to 100 nM and the Dmax fell in the range of 75 to 85%. For the same compound, in assay [2], the half-maximal degradation concentration (DC50) was less than 10 nM and the Dmax was 75 to 85%.
With `O=C1CCC(N2C(=O)c3ccc(N4[C@@H]5CC[C@H]4CC(CN4CCC(CN6CCN7c8cc(-c9ccccc9O)nnc8NC[C@H]7C6)CC4)C5)cc3C2=O)C(=O)N1` (stereo partly drawn) [Example 180, 2-(2,6-dioxopiperidin-3-yl)-5-[(1S,5R)-3-[[4-[[(10S)-4-(2-hydroxyphenyl)-1,5,6,8,12-pentazatricyclo[8.4.0.02,7]tetradeca-2,4,6-trien-12-yl]methyl]piperidin-1-yl]methyl]-8-azabicyclo[3.2.1]octan-8-yl]isoindole-1,3-dione], the 50% degradation concentration (DC50) in assay [1] and in assay [2] was less than 10 nM in each case. Besides, the Dmax in assay [1] and in assay [2] was 75 to 85% throughout.
As for `CC1(CN2CCC(CN3CCN4c5cc(-c6ccccc6O)nnc5NC[C@H]4C3)CC2)CCN(c2ccc3c(c2)C(=O)N(C2CCC(=O)NC2=O)C3=O)CC1` (stereo partly drawn) [Example 226, 2-(2,6-dioxopiperidin-3-yl)-5-(4-((4-(((S)-2-(2-hydroxyphenyl)-5,6,6a,7,9,10-hexahydro-8H-pyrazino[1′,2′:4,5]pyrazino[2,3-c]pyridazin-8-yl)methyl)piperidin-1-yl)methyl)-4-methylpiperidin-1-yl)isoindoline-1,3-dione], in assay [1], the DC50 was less than 10 nM and the Dmax is 75 to 85%. Further, in assay [2], the DC50 is less than 10 nM and the Dmax is more than 85%.
`O=C1CCC(N2C(=O)c3cccc(N4CCC(CCCN5CCC6(CCC(N7CCN8c9cc(-c%10ccccc%10O)nnc9NC[C@H]8C7)CC6)CC5)CC4)c3C2=O)C(=O)N1` (stereo partly drawn) [Example 72, 2-(2,6-dioxopiperidin-3-yl)-4-(4-(3-(9-((S)-2-(2-hydroxyphenyl)-5,6,6a,7,9,10-hexahydro-8H-pyrazino[1′,2′:4,5]pyrazino[2,3-c]pyridazin-8-yl)-3-azaspiro[5.5]undecan-3-yl)propyl)piperidin-1-yl)isoindoline-1,3-dione]: in assay [1], the DC50 is less than 10 nM and the Dmax is 50 to 75%. Also, in assay [2], the DC50 was less than 10 nM and the Dmax was in the range of 75 to 85%.
Regarding `N#CC1(CN2CCN3c4cc(-c5ccccc5O)nnc4NC[C@H]3C2)CCN(CC2CCN(c3ccc4c(c3)C(=O)N(C3CCC(=O)NC3=O)C4=O)CC2)CC1` (stereo partly drawn) [Example 178, 1-[[1-[2-(2,6-dioxopiperidin-3-yl)-1,3-dioxoisoindol-5-yl]piperidin-4-yl]methyl]-4-[[(10S)-4-(2-hydroxyphenyl)-1,5,6,8,12-pentazatricyclo[8.4.0.02,7]tetradeca-2,4,6-trien-12-yl]methyl]piperidine-4-carbonitrile], in assay [1], the DC50 was less than 10 nM and the Dmax is 75 to 85%. Also, in assay [2], the DC50 was less than 10 nM and the Dmax is more than 85%.
As for `O=C1CCC(N2C(=O)c3ccc(N4C[C@H]5CC(N6CCC(CN7CCN8c9cc(-c%10ccccc%10O)nnc9NC[C@H]8C7)CC6)[C@H]5C4)cc3C2=O)C(=O)N1` (stereo partly drawn) [Example 190, 2-(2,6-dioxopiperidin-3-yl)-5-[(1S,5R)-6-[4-[[(10S)-4-(2-hydroxyphenyl)-1,5,6,8,12-pentazatricyclo[8.4.0.02,7]tetradeca-2(7),3,5-trien-12-yl]methyl]piperidin-1-yl]-3-azabicyclo[3.2.0]heptan-3-yl]isoindole-1,3-dione], the DC50 in assay [1] and in assay [2] was less than 10 nM each time. In addition, the Dmax in assay [1] and in assay [2] was 75 to 85% throughout.
As for `O=C1CCC(N2C(=O)c3ccc(C4CCN(CC5CCN(C(=O)N6CCN7c8cc(-c9ccccc9O)nnc8NC[C@H]7C6)CC5)CC4)cc3C2=O)C(=O)N1` (stereo partly drawn) [Example 144, 2-(2,6-dioxopiperidin-3-yl)-5-(1-((1-((S)-2-(2-hydroxyphenyl)-6,6a,7,8,9,10-hexahydro-5H-pyrazino[1′,2′:4,5]pyrazino[2,3-c]pyridazine-8-carbonyl)piperidin-4-yl)methyl)piperidin-4-yl)isoindoline-1,3-dione], the DC50 in assay [1] and in assay [2] was less than 10 nM in each case. The maximal degradation (Dmax) in assay [1] and in assay [2] was 75 to 85% in each case.
With `CC1(C)CN(CC2CCN(c3ccc4c(c3)C(=O)N(C3CCC(=O)NC3=O)C4=O)CC2)CCC1CN1CCN2c3cc(-c4ccccc4O)nnc3NC[C@H]2C1` (stereo partly drawn) [Example 257, 2-(2,6-dioxopiperidin-3-yl)-5-(4-((4-(((S)-2-(2-hydroxyphenyl)-5,6,6a,7,9,10-hexahydro-8H-pyrazino[1′,2′:4,5]pyrazino[2,3-c]pyridazin-8-yl)methyl)-3,3-dimethylpiperidin-1-yl)methyl)piperidin-1-yl)isoindoline-1,3-dione], in assay [1], the DC50 is less than 10 nM and the maximal degradation (Dmax) was more than 85%. In addition, in assay [2], the DC50 is less than 10 nM and the Dmax is more than 85%.
Consider `O=C1CCC(N2C(=O)c3ccc(N4CCC(CN5CC6CC(CN7CCN8c9cc(-c%10ccccc%10O)nnc9NC[C@H]8C7)C6C5)CC4)cc3C2=O)C(=O)N1` (stereo partly drawn) [Example 177, 2-(2,6-dioxopiperidin-3-yl)-5-[4-[[6-[[(10S)-4-(2-hydroxyphenyl)-1,5,6,8,12-pentazatricyclo[8.4.0.02,7]tetradeca-2,4,6-trien-12-yl]methyl]-3-azabicyclo[3.2.0]heptan-3-yl]methyl]piperidin-1-yl]isoindole-1,3-dione], for which the DC50 in assay [1] and in assay [2] was less than 10 nM in each case. Moreover, the Dmax is 50 to 75% in assay [1] and more than 85% in assay [2].
Regarding `O=C1CCC(N2C(=O)c3ccc(N4CC(CN5CCC(CN6CCN7c8cc(-c9ccccc9O)nnc8NC[C@H]7C6)CC5)C(F)(F)C4)cc3C2=O)C(=O)N1` (stereo partly drawn) [Example 191, 5-[3,3-difluoro-4-[[4-[[(10S)-4-(2-hydroxyphenyl)-1,5,6,8,12-pentazatricyclo[8.4.0.02,7]tetradeca-2(7),3,5-trien-12-yl]methyl]piperidin-1-yl]methyl]pyrrolidin-1-yl]-2-(2,6-dioxopiperidin-3-yl)isoindole-1,3-dione], in assay [1], the DC50 fell in the range of 10 to 100 nM and the Dmax was in the range of 75 to 85%. In assay [2], the 50% degradation concentration (DC50) was less than 10 nM and the Dmax lay in the range of 50 to 75%.
In the same order, the values of `O=C1CCC(N2C(=O)c3ccc(N4CC5(CC(N6C[C@@H]7[C@@H](CN8CCN9c%10cc(-c%11ccccc%11O)nnc%10NC[C@H]9C8)[C@@H]7C6)C5)C4)cc3C2=O)C(=O)N1` (stereo partly drawn) [Example 259, 2-(2,6-dioxopiperidin-3-yl)-5-(6-((1R,5S,6s)-6-(((S)-2-(2-hydroxyphenyl)-5,6,6a,7,9,10-hexahydro-8H-pyrazino[1′,2′:4,5]pyrazino[2,3-c]pyridazin-8-yl)methyl)-3-azabicyclo[3.1,0]hexan-3-yl)-2-azaspiro[3.3]heptan-2-yl)isoindoline-1,3-dione] are less than 10 nM, 75 to 85%, less than 10 nM and more than 85%.
In the same order, the values of `C[C@@H](CN1CCC(N2CCN3c4cc(-c5ccccc5O)nnc4NC[C@H]3C2)CC1)Nc1cccc2c1C(=O)N(C1CCC(=O)NC1=O)C2=O` (stereo partly drawn) [Example 71, 2-(2,6-dioxopiperidin-3-yl)-4-(((S)-1-(4-((S)-2-(2-hydroxyphenyl)-5,6,6a,7,9,10-hexahydro-8H-pyrazino[1′,2′:4,5]pyrazino[2,3-c]pyridazin-8-yl)piperidin-1-yl)propan-2-yl)ammo)isoindoline-1,3-dione] are less than 10 nM, 75 to 85%, less than 10 nM and 75 to 85%.
